Results: article PMC2745115 (Bioorganic & medicinal chemistry letters, 2008)

Assays:
[1] = Hydrolysis stability of esters by HPLC; format: physicochemical; settings: pH 7.4, 25 mM phosphate buffer, 37 C, after 24 hours
μ opioid receptor = μ opioid receptor (Homo sapiens, UniProt P35372); assay: Inhibition of [3H]DAMGO binding to CHO cell membranes; settings: relative to 4d
[2] = rhesus monkeys; cited from earlier work
[3] = humans; cited from earlier work
κ opioid receptor = κ opioid receptor (Homo sapiens, UniProt P41145); assay: Inhibition of [3H]U69,593 binding to CHO cell membranes; settings: relative to butorphanol
Chain of κ opioid receptor (P41145 whole entry): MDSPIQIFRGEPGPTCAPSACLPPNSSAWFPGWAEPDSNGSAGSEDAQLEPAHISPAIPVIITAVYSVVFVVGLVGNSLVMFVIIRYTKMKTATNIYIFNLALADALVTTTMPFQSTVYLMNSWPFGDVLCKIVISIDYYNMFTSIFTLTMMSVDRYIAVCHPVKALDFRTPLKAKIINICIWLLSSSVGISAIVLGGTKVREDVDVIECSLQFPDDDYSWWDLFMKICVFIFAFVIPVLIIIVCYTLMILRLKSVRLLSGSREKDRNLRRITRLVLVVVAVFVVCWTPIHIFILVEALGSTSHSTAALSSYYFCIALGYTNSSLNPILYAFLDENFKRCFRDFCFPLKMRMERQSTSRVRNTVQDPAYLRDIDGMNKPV

Chain of μ opioid receptor (P35372 whole entry, species assumed): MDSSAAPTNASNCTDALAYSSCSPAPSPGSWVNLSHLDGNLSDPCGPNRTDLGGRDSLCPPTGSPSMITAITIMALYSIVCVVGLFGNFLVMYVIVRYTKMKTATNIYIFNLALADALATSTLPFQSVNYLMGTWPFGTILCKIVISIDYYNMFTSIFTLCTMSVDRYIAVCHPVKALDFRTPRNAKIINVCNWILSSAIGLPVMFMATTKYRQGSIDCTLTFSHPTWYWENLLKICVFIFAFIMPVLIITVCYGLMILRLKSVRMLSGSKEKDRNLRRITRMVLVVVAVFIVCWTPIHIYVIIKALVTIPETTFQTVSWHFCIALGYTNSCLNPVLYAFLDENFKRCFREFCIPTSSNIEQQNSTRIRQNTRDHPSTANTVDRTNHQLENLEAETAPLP

For `Cl.O=C(Cc1ccccc1)Oc1ccc2c(c1)[C@@]13CCCC[C@@]1(O)[C@@H](C2)N(CC1CCC1)CC3` [4b], which “hydrolysis of the esters” value [1] is on record?
Its value is “No hydrolysis”.

For `Cc1ccc(C(C)C(=O)Oc2ccc3c(c2)[C@@]24CCCC[C@@]2(O)[C@@H](C3)N(CC2CCC2)CC4)cc1.Cl` (stereo partly drawn) [4c], which “hydrolysis of the esters” value [1] is on record?
Its value is “No hydrolysis”.

Which “less binding affinity at the μ opioid receptor than 4d” value (μ opioid receptor) does the source give for `Cl.O[C@@]12CCCC[C@@]13CCN(CC1CCC1)[C@@H]2Cc1ccc(OCCc2ccccc2)cc13` [5d] here?
The value was 164 fold.

What does the source list for `Oc1ccc2c(c1)[C@@]13CCCC[C@@]1(O)[C@@H](C2)N(CC1CCC1)CC3` [3b, butorphanol]?
cocaine self-administration [2]: decrease cocaine self-administration; food-maintained responding [2]: without producing a significant change; analgesic potency, times that of meperdine [3]: 30 – 40 times; analgesic potency, times that of morphine [3]: 4 – 8 times; analgesic potency, times that of pentazocine [3]: 16 – 24 times

With `Cl.O=C(COc1ccccc1)Oc1ccc2c(c1)[C@@]13CCCC[C@@]1(O)[C@@H](C2)N(CC1CCC1)CC3` [4d, (-)-N-cyclobutylmethylmorphinan-3-yl-14-ol phenoxyacetate] as the compound, how does the “more potent binder at the κ receptor than butorphanol” value (κ opioid receptor) read?
The value was “four-fold”.
